Usually IC50 stands for the concentration that gives 50% inhibition. Broadly, the EC50 is the concentration needed to bring the measured effect to its halfway point. As usually defined, the AC50 is the concentration giving half of the maximal activity seen. Usually CC50 stands for the concentration giving 50% cytotoxicity.

The test system of test [1] is HEK293. As to the kind of experiment: cells. Type of test: functional, cell-based. To be noted: Homo sapiens.
Test [2] has as its system HEK293. As to the kind of experiment: cells. Type of test: functional, cell-based. To be noted: Homo sapiens. This is another data set of the same source.
A further test addresses NS3 (Hepatitis C virus, UniProt A3EZJ3). Briefly: PubChem AID 2173. Also noted: species or system Hepacivirus hominis.
Test [3] relates to HEK293. Briefly: cells. It is filed as functional, cell-based. The settings on record: Homo sapiens. This is another data set of the same source.
In test [4] the test system is HEK293. Briefly: inhibition of NOD1-driven NF-kB reporter – cell-based, luminescence, uHTS, primary screen (AID 1578). To be noted: Homo sapiens. Type of test: functional.
The target in test [5] is Nucleotide-binding oligomerization domain-containing protein 2 (Homo sapiens, UniProt Q9HC29). As to the kind of experiment: inhibition of NOD2-driven NF-kB reporter – cell-based, luminescence, uHTS, HEK293 (AID 1566). Type of test: functional.
Chain of Nucleotide-binding oligomerization domain-containing protein 2 (Q9HC29 whole entry, the tested form may be a part): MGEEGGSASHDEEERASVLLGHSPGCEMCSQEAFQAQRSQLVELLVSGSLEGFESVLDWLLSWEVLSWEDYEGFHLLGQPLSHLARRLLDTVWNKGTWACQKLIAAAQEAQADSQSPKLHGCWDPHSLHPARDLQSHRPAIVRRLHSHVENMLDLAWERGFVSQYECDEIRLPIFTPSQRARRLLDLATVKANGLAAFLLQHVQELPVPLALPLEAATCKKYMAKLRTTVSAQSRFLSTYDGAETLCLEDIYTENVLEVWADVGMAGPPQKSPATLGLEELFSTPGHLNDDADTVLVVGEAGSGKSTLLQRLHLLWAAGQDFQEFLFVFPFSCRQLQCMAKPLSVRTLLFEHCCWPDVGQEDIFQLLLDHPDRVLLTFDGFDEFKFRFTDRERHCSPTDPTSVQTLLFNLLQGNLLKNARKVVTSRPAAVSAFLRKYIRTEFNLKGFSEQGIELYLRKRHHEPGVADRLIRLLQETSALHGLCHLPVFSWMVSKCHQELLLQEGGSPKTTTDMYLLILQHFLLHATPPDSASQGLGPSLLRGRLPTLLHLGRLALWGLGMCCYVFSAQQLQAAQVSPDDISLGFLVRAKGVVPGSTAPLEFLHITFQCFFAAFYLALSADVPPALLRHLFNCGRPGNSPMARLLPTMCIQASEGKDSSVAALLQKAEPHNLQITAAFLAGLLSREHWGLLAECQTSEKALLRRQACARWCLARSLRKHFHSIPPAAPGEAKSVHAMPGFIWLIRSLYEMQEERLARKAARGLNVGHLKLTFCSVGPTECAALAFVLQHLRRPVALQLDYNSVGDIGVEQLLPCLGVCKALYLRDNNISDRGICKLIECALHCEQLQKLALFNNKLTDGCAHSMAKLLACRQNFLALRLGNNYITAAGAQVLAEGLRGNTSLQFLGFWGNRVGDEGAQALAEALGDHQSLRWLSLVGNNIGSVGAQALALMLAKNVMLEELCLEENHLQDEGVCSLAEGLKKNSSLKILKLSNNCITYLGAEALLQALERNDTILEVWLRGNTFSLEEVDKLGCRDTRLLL
The target in test [6] is T1, Histone-lysine N-methyltransferase NSD2 (Homo sapiens, UniProt O96028).
T1 sequence (O96028 whole entry): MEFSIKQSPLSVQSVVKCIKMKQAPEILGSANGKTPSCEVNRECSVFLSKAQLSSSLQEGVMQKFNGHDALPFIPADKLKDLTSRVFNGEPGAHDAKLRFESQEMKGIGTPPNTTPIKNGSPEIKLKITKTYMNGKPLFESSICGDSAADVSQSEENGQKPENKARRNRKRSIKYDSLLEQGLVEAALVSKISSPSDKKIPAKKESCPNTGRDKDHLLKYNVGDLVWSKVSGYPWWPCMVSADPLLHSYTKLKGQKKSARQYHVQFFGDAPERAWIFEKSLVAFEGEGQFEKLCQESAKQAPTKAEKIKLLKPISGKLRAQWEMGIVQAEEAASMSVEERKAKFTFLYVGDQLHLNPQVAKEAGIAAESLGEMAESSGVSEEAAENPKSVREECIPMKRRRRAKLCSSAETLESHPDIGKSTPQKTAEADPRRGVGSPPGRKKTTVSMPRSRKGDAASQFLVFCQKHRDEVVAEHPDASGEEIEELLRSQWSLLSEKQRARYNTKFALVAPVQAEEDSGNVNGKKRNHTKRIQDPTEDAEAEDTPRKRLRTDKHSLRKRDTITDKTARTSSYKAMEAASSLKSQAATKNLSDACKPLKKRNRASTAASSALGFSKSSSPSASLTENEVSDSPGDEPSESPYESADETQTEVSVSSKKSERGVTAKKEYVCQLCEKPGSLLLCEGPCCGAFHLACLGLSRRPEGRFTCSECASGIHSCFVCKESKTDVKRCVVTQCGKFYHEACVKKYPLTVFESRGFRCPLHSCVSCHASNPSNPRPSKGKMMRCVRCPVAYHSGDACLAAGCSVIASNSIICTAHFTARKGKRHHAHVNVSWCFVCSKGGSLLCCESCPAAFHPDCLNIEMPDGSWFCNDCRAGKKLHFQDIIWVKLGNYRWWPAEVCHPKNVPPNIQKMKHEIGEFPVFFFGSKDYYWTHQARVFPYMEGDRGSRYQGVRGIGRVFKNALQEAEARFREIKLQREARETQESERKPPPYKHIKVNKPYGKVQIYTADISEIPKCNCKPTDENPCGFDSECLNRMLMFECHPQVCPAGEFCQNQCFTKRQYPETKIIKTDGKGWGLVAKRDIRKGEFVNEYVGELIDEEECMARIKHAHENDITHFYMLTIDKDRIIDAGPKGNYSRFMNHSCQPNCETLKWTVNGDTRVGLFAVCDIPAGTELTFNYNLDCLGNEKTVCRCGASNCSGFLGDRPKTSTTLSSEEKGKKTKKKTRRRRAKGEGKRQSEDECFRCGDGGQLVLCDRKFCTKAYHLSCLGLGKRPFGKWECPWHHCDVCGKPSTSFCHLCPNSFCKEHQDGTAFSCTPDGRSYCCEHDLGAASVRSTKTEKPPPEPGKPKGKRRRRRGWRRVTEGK
Type of test: biochemical.

Test [7] deals with T2, Short transient receptor potential channel 4 (Mus musculus, UniProt Q9QUQ5).
T2 sequence (Q9QUQ5 whole entry): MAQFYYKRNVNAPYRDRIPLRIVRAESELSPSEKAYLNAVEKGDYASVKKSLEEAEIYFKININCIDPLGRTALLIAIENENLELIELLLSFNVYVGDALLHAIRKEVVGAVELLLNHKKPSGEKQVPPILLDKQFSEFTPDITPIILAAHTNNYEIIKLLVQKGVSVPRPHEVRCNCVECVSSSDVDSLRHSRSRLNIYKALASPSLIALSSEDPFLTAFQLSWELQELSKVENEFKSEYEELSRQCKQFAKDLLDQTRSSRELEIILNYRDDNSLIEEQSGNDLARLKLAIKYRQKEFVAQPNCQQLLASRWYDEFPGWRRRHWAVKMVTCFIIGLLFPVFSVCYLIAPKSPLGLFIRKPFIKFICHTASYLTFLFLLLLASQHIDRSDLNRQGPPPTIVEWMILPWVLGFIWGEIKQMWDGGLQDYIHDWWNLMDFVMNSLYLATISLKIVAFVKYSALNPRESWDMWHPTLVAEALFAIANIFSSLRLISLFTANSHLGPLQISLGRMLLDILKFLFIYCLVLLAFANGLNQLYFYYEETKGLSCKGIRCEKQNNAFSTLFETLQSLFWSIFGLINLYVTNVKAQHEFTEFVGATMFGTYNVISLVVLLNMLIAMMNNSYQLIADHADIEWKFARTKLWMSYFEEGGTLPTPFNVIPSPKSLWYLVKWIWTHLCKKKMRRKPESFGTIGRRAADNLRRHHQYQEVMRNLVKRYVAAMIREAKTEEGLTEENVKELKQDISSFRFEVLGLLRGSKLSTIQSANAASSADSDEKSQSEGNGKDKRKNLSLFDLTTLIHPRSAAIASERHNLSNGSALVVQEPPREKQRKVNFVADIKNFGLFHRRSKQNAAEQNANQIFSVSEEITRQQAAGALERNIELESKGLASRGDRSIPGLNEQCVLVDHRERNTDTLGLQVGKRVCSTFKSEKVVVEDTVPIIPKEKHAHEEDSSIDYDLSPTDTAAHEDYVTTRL
As to the kind of experiment: block of DAMGO-driven TRPC4 calcium entry – cell-based, HEK293 TRPC4/mu-opioid, Fluo-4 calcium, dose response (AID 434942).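 Note: potency of inhibitors blocking the TRPC4 calcium response.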 It is filed as functional.

The target of test [8] is T3, Ubiquitin-conjugating enzyme E2 N (Homo sapiens, UniProt P61088).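 Note: Dose-response confirmation in a TR-FRET assay detecting UBC13-driven polyubiquitin chain formation, inhibition measured.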
T3 sequence (P61088 whole entry): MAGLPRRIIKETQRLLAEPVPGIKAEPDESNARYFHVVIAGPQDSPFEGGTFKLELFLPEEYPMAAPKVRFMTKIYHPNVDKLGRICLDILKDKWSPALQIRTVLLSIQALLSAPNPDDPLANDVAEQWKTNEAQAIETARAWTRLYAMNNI
It is filed as functional.

Test [9] can be described thus: A Cell Based Secondary Assay To Explore Cytotoxicity of Compounds that Sensitize Mycobacterium Tuberculosis to Beta-Lactam Antibiotics. It is filed as functional.
The target of the next test is Beta-galactosidase (Escherichia coli, UniProt Q8VNN2). As to the kind of experiment: PubChem AID 485352. Type of test: functional.
Chain of Beta-galactosidase (Q8VNN2 whole entry): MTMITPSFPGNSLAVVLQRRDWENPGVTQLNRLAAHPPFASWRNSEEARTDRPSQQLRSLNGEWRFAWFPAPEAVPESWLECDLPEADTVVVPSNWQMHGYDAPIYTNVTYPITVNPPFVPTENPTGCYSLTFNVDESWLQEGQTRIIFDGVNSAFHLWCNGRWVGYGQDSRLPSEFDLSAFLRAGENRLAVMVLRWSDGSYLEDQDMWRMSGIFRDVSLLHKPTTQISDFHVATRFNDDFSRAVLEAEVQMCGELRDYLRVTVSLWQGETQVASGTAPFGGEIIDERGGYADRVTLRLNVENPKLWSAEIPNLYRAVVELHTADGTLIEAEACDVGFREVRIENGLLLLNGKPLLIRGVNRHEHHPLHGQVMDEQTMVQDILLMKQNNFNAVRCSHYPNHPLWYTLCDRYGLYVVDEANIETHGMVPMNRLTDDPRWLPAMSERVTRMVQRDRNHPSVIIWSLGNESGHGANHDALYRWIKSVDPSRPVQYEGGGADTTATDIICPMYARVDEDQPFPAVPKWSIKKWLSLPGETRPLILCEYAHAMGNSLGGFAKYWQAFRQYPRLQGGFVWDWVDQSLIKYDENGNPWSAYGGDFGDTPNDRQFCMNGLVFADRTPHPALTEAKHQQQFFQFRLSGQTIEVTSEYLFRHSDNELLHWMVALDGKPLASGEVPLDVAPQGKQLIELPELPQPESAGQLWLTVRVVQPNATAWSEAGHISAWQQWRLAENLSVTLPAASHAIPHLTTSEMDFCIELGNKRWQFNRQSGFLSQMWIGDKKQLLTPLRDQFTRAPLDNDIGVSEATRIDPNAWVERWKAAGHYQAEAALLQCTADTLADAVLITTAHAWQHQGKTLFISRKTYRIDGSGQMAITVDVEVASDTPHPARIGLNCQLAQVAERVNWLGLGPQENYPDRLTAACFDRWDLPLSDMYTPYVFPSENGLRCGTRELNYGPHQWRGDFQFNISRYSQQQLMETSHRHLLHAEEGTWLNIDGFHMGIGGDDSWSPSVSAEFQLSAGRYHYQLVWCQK
For test [10], the target named is T4, Type-1 angiotensin II receptor (Homo sapiens, UniProt P30556).
T4 sequence (P30556 whole entry): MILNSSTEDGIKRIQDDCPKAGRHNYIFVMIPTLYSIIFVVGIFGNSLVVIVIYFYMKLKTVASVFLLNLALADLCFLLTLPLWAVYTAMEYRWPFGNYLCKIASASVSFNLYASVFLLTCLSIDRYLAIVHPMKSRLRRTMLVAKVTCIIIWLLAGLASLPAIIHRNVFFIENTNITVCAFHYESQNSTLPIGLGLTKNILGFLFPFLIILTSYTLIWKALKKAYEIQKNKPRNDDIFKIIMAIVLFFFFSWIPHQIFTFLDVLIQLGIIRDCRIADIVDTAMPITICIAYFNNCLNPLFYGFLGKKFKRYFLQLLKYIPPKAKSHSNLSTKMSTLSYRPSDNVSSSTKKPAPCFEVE
Briefly: antagonism of angiotensin II type 1 receptor – cell-based, uHTS hits, selectivity assay for APJ receptor antagonist project, dose response (AID 463214).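 Note: antagonist potency against angiotensin II stimulated AT1 response.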 Type of test: functional.

A short description of test [11]: Luminescence Cell-Based Dose Retest to Confirm Inhibitors of Cancer Stem Cells. [Related pubchem assays (depositor defined):AID2717, AID2721]. Type of test: functional, Homo sapiens. The settings on record: Homo sapiens.
In test [12] the test system is Vero. As to the kind of experiment: cells. It is filed as functional. To be noted: Chlorocebus sabaeus.
A further test addresses Genome polyprotein (dengue virus type 2, UniProt P29990). Briefly: flavivirus cap methylation enzyme inhibition – biochemical, confirmation dose response, primary screen (AID 588689). It is filed as functional.
A further test deals with Nonstructural protein 1 (Influenza A virus, UniProt Q194T2). It is filed as functional, Influenza A virus (A/California/07/2009(H1N1)).
Chain of Nonstructural protein 1 (Q194T2 whole entry): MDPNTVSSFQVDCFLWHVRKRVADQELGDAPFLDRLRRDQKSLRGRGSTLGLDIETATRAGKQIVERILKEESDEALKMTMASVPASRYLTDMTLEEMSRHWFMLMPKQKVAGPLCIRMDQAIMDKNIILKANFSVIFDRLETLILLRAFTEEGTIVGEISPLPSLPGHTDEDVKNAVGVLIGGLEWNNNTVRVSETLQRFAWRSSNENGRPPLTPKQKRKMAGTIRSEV
The target in test [13] is Neurotensin receptor type 1 (Homo sapiens, UniProt P30989). It is filed as functional.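 Note: Image-based confirmatory dose-response assay measuring agonist activity at NTR1; NTR1-expressing U2OS osteosarcoma cells imaged for beta-arrestin GFP spot formation; agonist potency where compounds increase beta-arrestin recruitment.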
Chain of Neurotensin receptor type 1 (P30989 whole entry): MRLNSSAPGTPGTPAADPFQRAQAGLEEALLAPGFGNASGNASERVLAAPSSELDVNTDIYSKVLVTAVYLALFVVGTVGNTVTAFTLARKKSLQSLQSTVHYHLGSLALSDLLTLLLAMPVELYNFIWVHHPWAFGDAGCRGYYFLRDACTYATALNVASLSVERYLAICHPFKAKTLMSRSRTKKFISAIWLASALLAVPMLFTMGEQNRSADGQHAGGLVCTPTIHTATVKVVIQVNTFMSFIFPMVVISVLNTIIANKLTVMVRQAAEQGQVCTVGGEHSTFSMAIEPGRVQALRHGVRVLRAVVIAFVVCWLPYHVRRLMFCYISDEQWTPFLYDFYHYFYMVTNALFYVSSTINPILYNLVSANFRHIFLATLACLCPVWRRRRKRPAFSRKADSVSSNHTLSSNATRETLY
The subject of test [14] is Vero. Briefly: viability of Vero cells under compound – cytotoxicity control for flavivirus capping enzyme inhibitors (AID 588742). Type of test: functional. The settings on record: Chlorocebus sabaeus.
For the next test, the system named is HeLa. As to the kind of experiment: viability loss in HeLa cells – cell-based, 24 h, cherry-picked samples, cytotoxicity control, dose response (AID 504726).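 Note: potency for cytotoxicity as loss of luminescence signal.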 Type of test: functional. The settings on record: Homo sapiens.
For test [15], the target named is DNA dC->dU-editing enzyme APOBEC-3G (Homo sapiens, UniProt Q9HC16). As to the kind of experiment: Dose Response confirmation of small molecule APOBEC3G DNA Deaminase Inhibitors via a fluorescence-based single-stranded DNA deaminase assay. [Related pubchem assays (depositor defined):AID493012, AID493028]. Type of test: functional.
In test [16] the target is Cyclin-dependent kinase 5/CDK5 activator 1 (Homo sapiens, UniProt Q00535). As to the kind of experiment: blockade of human CDK5 activity – biochemical, cherry-picked samples, set 2, dose response (AID 504545).
Chain of Cyclin-dependent kinase 5/CDK5 activator 1 (Q00535 whole entry): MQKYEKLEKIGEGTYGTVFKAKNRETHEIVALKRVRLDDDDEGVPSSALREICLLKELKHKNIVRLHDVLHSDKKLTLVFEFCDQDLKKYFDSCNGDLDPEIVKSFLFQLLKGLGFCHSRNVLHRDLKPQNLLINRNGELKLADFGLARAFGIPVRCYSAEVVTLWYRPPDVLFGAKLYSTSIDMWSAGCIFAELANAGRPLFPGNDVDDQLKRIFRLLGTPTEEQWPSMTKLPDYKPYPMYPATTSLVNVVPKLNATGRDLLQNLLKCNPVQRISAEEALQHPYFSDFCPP
Chain of Cyclin-dependent kinase 5/CDK5 activator 1 (Q15078 whole entry, further chain): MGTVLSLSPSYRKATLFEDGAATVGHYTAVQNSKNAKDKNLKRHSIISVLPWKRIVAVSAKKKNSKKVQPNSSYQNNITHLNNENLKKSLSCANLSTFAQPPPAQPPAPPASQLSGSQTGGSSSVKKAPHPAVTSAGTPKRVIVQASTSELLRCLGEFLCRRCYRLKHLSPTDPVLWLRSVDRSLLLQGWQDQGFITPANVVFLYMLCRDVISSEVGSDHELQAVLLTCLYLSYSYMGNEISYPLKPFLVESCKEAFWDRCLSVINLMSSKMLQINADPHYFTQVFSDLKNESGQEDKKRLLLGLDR
In test [17] the target is Luciferin 4-monooxygenase (Photinus pyralis, UniProt P08659). Briefly: inhibition of purified Photinus pyralis luciferase – biochemical, luminescence, dose response (AID 1891).

Calls of active or inactive are those of the source.

Chain of NS3 (A3EZJ3 whole entry): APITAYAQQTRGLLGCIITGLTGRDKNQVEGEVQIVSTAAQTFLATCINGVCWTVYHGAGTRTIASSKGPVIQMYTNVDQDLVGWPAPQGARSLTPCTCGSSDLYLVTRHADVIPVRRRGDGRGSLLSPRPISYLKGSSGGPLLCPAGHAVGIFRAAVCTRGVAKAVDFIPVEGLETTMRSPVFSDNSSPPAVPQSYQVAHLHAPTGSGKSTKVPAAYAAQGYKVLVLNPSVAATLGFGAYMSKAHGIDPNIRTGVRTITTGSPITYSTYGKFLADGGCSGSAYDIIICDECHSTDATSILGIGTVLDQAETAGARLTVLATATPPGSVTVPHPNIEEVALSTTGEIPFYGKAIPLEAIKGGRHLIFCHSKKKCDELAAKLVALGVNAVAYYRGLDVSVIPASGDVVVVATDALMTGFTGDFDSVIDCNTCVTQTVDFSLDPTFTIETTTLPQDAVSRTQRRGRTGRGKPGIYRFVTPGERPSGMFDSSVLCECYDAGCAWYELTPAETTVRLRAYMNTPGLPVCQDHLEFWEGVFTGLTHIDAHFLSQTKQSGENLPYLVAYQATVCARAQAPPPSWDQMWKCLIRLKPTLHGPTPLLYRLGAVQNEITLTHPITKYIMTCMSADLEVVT
Chain of Genome polyprotein (P29990 2492-3391 limits assumed): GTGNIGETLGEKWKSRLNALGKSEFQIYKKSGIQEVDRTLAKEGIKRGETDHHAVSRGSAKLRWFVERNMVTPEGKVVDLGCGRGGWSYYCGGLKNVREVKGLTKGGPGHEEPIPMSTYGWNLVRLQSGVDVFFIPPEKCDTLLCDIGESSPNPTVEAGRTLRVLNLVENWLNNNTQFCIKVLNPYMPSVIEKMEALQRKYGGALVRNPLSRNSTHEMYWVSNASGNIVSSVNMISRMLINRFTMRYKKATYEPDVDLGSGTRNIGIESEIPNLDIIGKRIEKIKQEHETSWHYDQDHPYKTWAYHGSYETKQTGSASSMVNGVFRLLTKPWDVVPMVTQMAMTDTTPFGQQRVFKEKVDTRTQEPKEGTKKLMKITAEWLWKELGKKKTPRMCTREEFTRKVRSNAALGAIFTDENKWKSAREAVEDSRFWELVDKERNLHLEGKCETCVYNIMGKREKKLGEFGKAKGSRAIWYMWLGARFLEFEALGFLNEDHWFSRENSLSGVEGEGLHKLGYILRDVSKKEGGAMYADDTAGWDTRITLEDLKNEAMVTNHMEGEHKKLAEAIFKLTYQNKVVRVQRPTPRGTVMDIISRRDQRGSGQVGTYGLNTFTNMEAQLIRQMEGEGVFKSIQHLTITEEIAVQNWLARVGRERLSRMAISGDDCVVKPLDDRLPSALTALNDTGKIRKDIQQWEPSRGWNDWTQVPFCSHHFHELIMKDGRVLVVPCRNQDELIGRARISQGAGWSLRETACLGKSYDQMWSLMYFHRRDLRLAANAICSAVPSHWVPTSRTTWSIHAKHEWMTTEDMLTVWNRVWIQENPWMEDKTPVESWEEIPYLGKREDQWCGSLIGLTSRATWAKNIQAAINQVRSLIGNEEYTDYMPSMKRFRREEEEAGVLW

Take `COc1ccccc1OCCCOc1cccc(/C=C2\SC(=O)NC2=O)c1`: the IC50 in the test with HEK293 [1] was > 20 µM (inactive); in the test on HEK293 [2], 15.7 µM (active); at NS3, 3.82 µM (active); with HEK293 [3], > 20 µM (inactive). Further, the values for the EC50 (in the test on HEK293 [4]; in test [5]) were 9.43 µM (active) and 9.15 µM (active), respectively.
Turning to `CCCOc1ccc(-c2nc(SCc3ccccc3)[nH]c(=O)c2C#N)cc1OC`, in test [6], the AC50 is > 20 µM (inactive). The EC50 in [7] was 4.73 µM (active). In addition, at NS3, the IC50 is 1.72 µM (active).
With `CC(C)N1CCc2c(sc(NC(=O)c3cc(-c4cccs4)nc4ccccc34)c2C(N)=O)C1`, the IC50 in [8] was > 20 µM (inactive); in test [10] it was > 40 µM (not active). The CC50 in test [9] is 6.25 µM (active). Moreover, the EC50 on Beta-galactosidase was > 40 µM (inactive). In addition, in [11], the AC50 was 13.2 µM (active).
Regarding `CCOC(=O)c1cc(-c2ccc(/C=C3/C(=O)N(c4ccc(C(=O)O)cc4)N=C3C)o2)ccc1Cl`, the CC50 in the test with Vero [12] is > 25 µM (active); with Vero [14], 24.9 µM (active). Also, the IC50 is 21.2 µM (active) at Genome polyprotein and 66.1 µM (active) on Nonstructural protein 1. The 50% effective concentration (EC50) in test [13] was 16 µM (active).
Regarding `CCn1c(S)nnc1-c1ccc([N+](=O)[O-])cc1`, the AC50 in the test with HeLa is 239 µM (active). For the same compound, the IC50 in test [15] is 9.77 µM (active).
Consider `COC(=O)/C(=C\Nc1ccc(Cl)cc1Cl)NC(=O)c1ccc(Cl)cc1Cl`, for which the half-maximal cytotoxic concentration (CC50) in [9] was > 40 µM (active).
Turning to `COc1ccc(C(=O)ON=C(N)c2ccccc2)cc1`, the AC50 in test [16] is 17.2 µM (active). Further, in [17], the EC50 was 1.21 µM (active).
